Measurements from US20020042400A1, “Novel alicyclic imidazoles as H3 agents” (priority 2000, published 2002).
Structures can show the parent of a compound that is named as a salt. Where two headings read alike, the source gives them in different places.

What was measured:
Histamine H3 receptor [1] = molecular target: T1, Histamine H3 receptor (Rattus norvegicus, UniProt Q9QYN8); conditions: radioligand Kd used in the Ki equation; read-out: Kd for [^3H]NAMHA; cited from earlier work
Histamine H3 receptor [2] = molecular target: T1, Histamine H3 receptor; assay: Histamine H3 receptor competition binding with [^3H]NAMHA in rat cerebral cortical membranes
Method: Histamine H3 receptor affinity was determined in rat cerebral cortical membranes with [^3H]NAMHA as previously described (Tedford et al., 1995). Animals were euthanized by rapid decapitation and cerebral cortical tissues were harvested and frozen on dry ice. Cerebral cortical membranes were prepared in 50 mM sodium-phosphate buffered saline (pH 7.5 at 4° C.) containing: EDTA (10 mM), phenylmethylsulfonyl fluoride (0.1 mM), chymostatin and leupeptin (each 0.2 mg/50 mL). The final membrane pellets were resuspended in water and stored frozen at −80° C. prior to use. Protein concentrations were determined using the Coomassie Plus Protein Assay (Pierce, Rockford Ill.).
Competition binding was carried out in a total volume of 0.2 mL of 50 mM sodium-phosphate buffer (pH 7.4) using ˜1 nM [^3H]NAMHA ([^3H]—N^α-methylhistamine, available from NEN Research Products of Boston, Mass.) and 0.003 to […] concentrations of the test compounds. Non-specific binding was determined using 10 μM thioperamide. Samples were incubated for 40 minutes at 25° C. and subsequently filtered through Whatman GF/C glass fiber filters pre-soaked in binding buffer with 0.3% polyethyleneimine, using an Inotech cell harvester (Inotech Biosystems International, Lansing Mich.). The filters were rapidly washed three times with Tris-NaCl buffer (25 and 145 mM, respectively, pH 7.4, 4° C.). Samples were quantitated using Ecolume scintillation cocktail (ICN Biomedicals; Costa Mesa Calif.) and a Packard model 1900TR liquid scintillation analyzer (Packard Instrument Co., Downers Grove Ill.). IC50 values were extrapolated from a plot of receptor occupancy (i.e. % bound) vs. log [competitor].

[3] = rat cerebral cortical membranes, ~1 nM [^3H]NAMHA, 40 minutes at 25° C., Ki=IC50/(1+([ligand]/[Kd]), read-out: Ki

T1 sequence (Q9QYN8 whole entry): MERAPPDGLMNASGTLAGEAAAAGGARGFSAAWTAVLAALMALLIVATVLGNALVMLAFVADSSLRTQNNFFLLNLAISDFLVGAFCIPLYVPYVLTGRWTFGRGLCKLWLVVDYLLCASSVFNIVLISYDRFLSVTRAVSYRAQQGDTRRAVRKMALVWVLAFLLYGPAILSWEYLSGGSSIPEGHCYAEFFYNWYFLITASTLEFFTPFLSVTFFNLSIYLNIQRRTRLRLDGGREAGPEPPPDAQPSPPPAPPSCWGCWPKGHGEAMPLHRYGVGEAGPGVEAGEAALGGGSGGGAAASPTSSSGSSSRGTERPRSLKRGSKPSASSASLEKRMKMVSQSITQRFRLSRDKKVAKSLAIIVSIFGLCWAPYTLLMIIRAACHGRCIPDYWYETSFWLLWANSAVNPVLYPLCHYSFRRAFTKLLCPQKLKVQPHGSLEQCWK

Row | Compound | Ki (Histamine H3 receptor [2]; [3]) [nM] | further results
1 | CNCCc1cnc[nH]1 [[^3H]NAMHA, [^3H]—N^α-methylhistamine] | – | Kd (Histamine H3 receptor [1]): 0.4 nM
2 | N=C(N)[C@@H]1C[C@H]1c1c[nH]cn1 (relative stereo) [Example 3, 4-(trans-2-amidino-cyclopropyl) Imidazole Di-trifluoroacetic Acid Salt] | 6.7 | –
3 | N#C[C@@H]1C[C@H]1c1c[nH]cn1 (relative stereo) [Example 1, 4-(trans-2-cyano-cyclopropyl) Imidazole Trifluoroacetic Acid Salt] | 20 | –
4 | NC(=O)[C@@H]1C[C@H]1c1c[nH]cn1 (relative stereo) [Example 2, 4-(trans-2-aminocarbonyl-cyclopropyl) Imidazole Trifluoroacetic Acid Salt] | 127 | –
5 | O/N=C/C1CC1c1c[nH]cn1 (stereo not drawn) [Example 5, 4-(trans-2-N-hydroxyimino-cyclopropyl) Imidazole] | 23 | –
6 | OC[C@@H]1C[C@H]1c1c[nH]cn1 (relative stereo) [Example 6, 4-(trans-2-hydroxymethyl-cyclopropyl) Imidazole Trifluoroacetic Acid Salt] | 263 | –
7 | CNC(=N)[C@@H]1C[C@H]1c1c[nH]cn1 (relative stereo) [Example 7, 4-(trans-2-N-methylamidino-cyclopropyl) Imidazole Di-hydrochloric Acid Salt] | 114 | –
8 | NC[C@@H]1C[C@H]1c1c[nH]cn1 (relative stereo) [Example 4, 4-(trans-2-aminomethyl-cyclopropyl) Imidazole Di-hydrochloric Acid Salt] | – | Ki (Histamine H3 receptor [2]): 4.5 nM
